“Also recorded” adds a separate entry of the source. Like-named read-outs stand apart in the source and are kept apart here. Blank lines part the entries; values can stand above or below the compound they belong to.
Assays:
human platelets = experiment: Inhibition of U46619-induced human platelet aggregation; assay type: cell-based; details: for IC50: Homo sapiens, Platelet, 1 min
Protocol: Platelet rich plasma was prepared from four healthy, normal volunteers using standard techniques.
Platelets were aggregated with U46619 (0.5 to 1.0 μM) to produce an
average % aggregation at one minute of 61.3 ± 3.1. The ID50 value
were calculated based on the inhibition of U46619 induced aggregation one
minute after its addition.
Platelets were aggregated with U46619 (0.09 to 0.65 μM) to produce an
average % aggregation at one minute of 47 ± 3. The ID50 values
The potency of PTA-OH and PTA-OM for antagonism of U46619 induced human platelet aggregation was determined as described above.

endotoxic shock = experiment: Protection against endotoxic shock (Salmonella endotoxin); assay type: in vivo, young male Long-Evans rats
Text: Based on the protective biological response observed and the absence of change in plasma thromboxane levels, it is concluded that trans-13 APT is a thromboxane receptor antagonist.

platelet aggregation [1] = details: 13-APA itself, stated as background for comparison; cited from earlier work
Solubility = assay type: physicochemical
platelet aggregation [2] = experiment: U46619 and arachidonic acid-induced platelet aggregation; assay type: cell-based, human
Protocol: Compound A was prepared in a manner analogous to 13 APA itself, i.e., by borohydride reduction of the Schiff base obtained from the reaction of tyramine and ethyl-2-oxo-cyclopentane-heptanoate. This reaction produces about equal amounts of the cis and trans ethyl esters, which were separated on preparative silica gel TLC and subsequently hydrolyzed to the free acids by refluxing in aqueous NaOH.

canine saphenous veins = experiment: Antagonism of vascular smooth muscle contraction in canine saphenous veins; assay type: cell-based
[3] = Table I, U46619 0.5 to 1.0 μM, average % aggregation at one minute 61.3 ± 3.1, indomethacin 10 μM, one minute preincubation, platelet rich plasma, read-out: ID50 (the source's name)
[4] = Table 2, U46619 0.09 to 0.65 μM, average % aggregation at one minute 47 ± 3, indomethacin 10 μM, one minute preincubation, read-out: ID50 (the source's name)
[5] = 30 mg/kg i.p., vs vehicle pretreated animals
[6] = pinane analogs, determined as described above, read-out: ID50 (antagonism of U46619 induced human platelet aggregation)

- IC50 (human platelets; [3]): 14.8 ± 2.2 µM
Structure (SMILES): CCCCCCCN[C@H]1CCC[C@H]1CCCCCCC(=O)O (relative stereo) [13-cis-azaprostanoic acid, reference compound]

- IC50 (human platelets; [3]): 13.6 ± 1.9 µM
Structure (SMILES): CCCCCCCN[C@@H]1CCC[C@H]1CCCCCCC(=O)O (relative stereo) [13-trans-azaprostanoic acid, reference compound]

- IC50 (human platelets; [3]): 17.6 ± 4.4 µM
Structure (SMILES): O=C(O)CCCCCC[C@@H]1CCC[C@@H]1NCCc1ccc(O)cc1 (relative stereo) [Compound 13-cis-APT, 7-(2-p-hydroxphenethylamino-cyclopentyl)-heptanoic acid]

- IC50 (human platelets; [3]): 8.3 ± 1.4 µM
- solubility in ethanol (Solubility): practically insoluble
Structure (SMILES): O=C(O)CCCCCC[C@@H]1CCC[C@H]1NCC(O)c1ccc(O)cc1 (stereo partly drawn) [Compound 13-trans-APO, 7-(2-p-hydroxyphenylethanolamino-cyclopentyl)-heptanoic acid]

Second part, the compound before the results:

Structure (SMILES): O=C(O)CCCCCC[C@H]1CCC[C@H]1NCC(O)c1ccc(O)c(I)c1 (relative stereo) [13-cis-iodo APO]
- IC50 (human platelets; [4]): 9.8 ± 1.3 µM

Structure (SMILES): O=C(O)CCCCCC[C@@H]1CCC[C@H]1NCCc1ccc(O)cc1 (relative stereo) [Compound 13-trans-APT, 7-(2-p-hydroxphenethylamino-cyclopentyl)-heptanoic acid]
- IC50 (human platelets; [3]): 9.9 ± 1.7 µM
- plasma thromboxane B2 levels (endotoxic shock; 30 mg/kg i.p., 30 minutes and four hours after endotoxin, vs vehicle): elevated to the same degree
- 6-keto-PGF1α levels (endotoxic shock; [5]): significantly lower
- endotoxic shock as measured by hypoglycemia, thrombocytopenia and tissue infarct effects (endotoxic shock; [5]): less subject to endotoxic shock
- protection against endotoxic shock (endotoxic shock; 30 mg/kg, intraperitoneal pretreatment, endotoxin intravenously): protected against endotoxic shock
- protection against pathophysiologic sequelae of S. enteritidis endotoxemia (endotoxic shock; 30 mg/kg, rats): effective in protecting rats

Structure (SMILES): CCCCCCCN[C@H]1CCC[C@@H]1CCCCCCC(=O)O [Compound 13-APA, 13-Azaprostanoic acid]
- relative potency of isomers (platelet aggregation [1]): much more potent as the trans form

Structure (SMILES): O=C(O)CCCCCC[C@@H]1CCC[C@@H]1NCC(O)c1ccc(O)cc1 (stereo partly drawn) [Compound 13-cis-APO, 7-(2-p-hydroxyphenylethanolamino-cyclopentyl)-heptanoic acid]
- IC50 (human platelets; [4]): 6.4 ± 0.7 µM
- IC50 (human platelets; [3]): 16 ± 3.2 µM

Structure (SMILES): O=C(O)CCCCCCC1CCCC1NCCc1ccc(O)cc1 (stereo not drawn) [Compound A, 7-(2-p-hydroxyphenethylamino-cyclopenthyl)-heptanoic acid]
- activity and relative potency of isomers in platelet aggregation (platelet aggregation [2]): the two isomers were active, with the trans more potent than the cis; also recorded: significantly more potent than the parent 13-APA

Structure (SMILES): CC1(C)C2CC(NCC(O)Cc3ccc(O)cc3)C(C/C=C\CCCC(=O)O)C1C2 (stereo not drawn) [PTA-OH, 13-aza-16-(p-hydroxyphenyl) pinane TxA2]
- relative potency as inhibitor of human platelet aggregation (human platelets): more potent than 13-aza-16-(p-methoxyphenyl) pinane TxA2 (PTA-OM)
- IC50 (human platelets; [6]): 0.52 ± 0.07 µM

Structure (SMILES): COc1ccc(CC(O)CNC2CC3CC(C2C/C=C\CCCC(=O)O)C3(C)C)cc1 (stereo not drawn) [PTA-OM, 13-aza-16-(p-methoxyphenyl) pinane TxA2]
- IC50 (human platelets; [6]): 1.56 ± 0.35 µM
- relative potency as antagonist of vascular smooth muscle contraction (canine saphenous veins): more potent than PTA-OH

Structure (SMILES): CC1(C)C2CC(NCC(O)Cc3ccc(O)c(I)c3)C(C/C=C\CCCC(=O)O)C1C2 (stereo not drawn) [^127 I-PTA-OH]
- IC50 (human platelets; [6]): 0.38 ± 0.05 µM
